# In US4687773A, “(+)-N-N-propylnorapomorphine and selective limbic activity” (priority 1985, dated 1987):
# Like-named read-outs stand apart in the source and are kept apart here.
# Key:
# [1] = tested on: dopamine (DA) receptors in the limbic system; experiment: Locomotor activity (spontaneous or aroused by (-)APO / (-)NPA), electronic activity monitor; format: in vivo, rat; conditions: Table 5; (-)NPA 3.0 mg/kg + saline
# [2] = biological target: T1, rat liver catechol O-methyl-transferase (COMT) (Rattus norvegicus, UniProt P22734); experiment: Isomeric substrate selectivity for rat liver COMT; format: biochemical
# T1 construct: partially purified rat liver catechol O-methyl-transferase (COMT); from tissue; host or cells: rat liver, ammonium sulfate precipitation and dialysis
# T1 sequence (P22734 1-221 isoform P22734-2): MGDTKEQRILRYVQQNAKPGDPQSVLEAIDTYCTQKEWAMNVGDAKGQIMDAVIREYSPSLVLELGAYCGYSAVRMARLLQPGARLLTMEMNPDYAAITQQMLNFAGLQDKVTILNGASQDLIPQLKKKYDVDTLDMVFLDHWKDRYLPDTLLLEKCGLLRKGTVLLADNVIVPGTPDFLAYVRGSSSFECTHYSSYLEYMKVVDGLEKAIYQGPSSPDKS
# [3] = tested on: dopamine (DA) receptors in the limbic system and basal ganglia; experiment: Total motor activity, electronic activity monitor (EAM); format: in vivo, rat
# Protocol: (§1) Activity: Overall motor activity was measured by use of the self-recording Stoelting electronic activity monitor method described previously by Stewart, Campbell, Sperk, and Baldessarini^9. Total activity is obtained by setting monitor sensitivity so as to detect both locomotion and small movements (such as grooming, sniffing, and chewing) as would be prominent in stereotyped responses that tend to diminish locomotion and increase sniffing, licking, and chewing movements. Locomotor activity is detected selectively by setting monitor sensitivity to detect large, locomotor movements, and to minimize smaller movements already described.
# (§2) All data presented in the Tables below are expressed as the mean results from 4-6 rats per condition, ±S.E.M. Stereotypy is expressed in rating units (maximum=3.0) and activity is expressed in arbitrary units of percent change, derived from EAM counts per unit time, relative to activity in control (saline) animals set at zero.
# All the posttreatment doses of (+)APO were 3.0 mg/kg, s.c. The data
# All posttreatment doses of (+)NPA were 3 mg/kg, s.c. The data are similar
# [4] = biological target: T2, Dopamine (DA) sensitive adenylate cyclase (Rattus norvegicus, UniProt P18901); experiment: Stimulation of formation of cyclic AMP in rat striatal homogenate; format: biochemical
# T2 construct: homogenates of rat corpus striatum; from tissue; host or cells: rat corpus striatum homogenate
# Excerpt: assayed in homogenates of corpus striatum obtained from rat brain. The
# method of assay of the activity of DAsensitive adenylate cyclase by the
# rate of formation of cAMP above a basal (no agonist) level is described
# under Experimental Section. The data are mean values of cAMP levels in […]
# [5] = Catalepsy (latency to resume normal posture); format: in vivo, rat; conditions: s.c., maximum 18.0
# Protocol: Catalepsy: This measure of muscle rigidity is assessed by having animals in abnormal body positions and timing their duration of maintaining these. This is done by placing rats on a wire grid placed at a 45° angle to the benchtop, or by placing their forelimbs on a raised horizontal metal bar, and timing the latency to resume a normal posture by stopwatch.
# as §2
# [6] = tested on: dopamine (DA) receptors in the basal ganglia (corpus striatum); experiment: Stereotyped licking and gnawing behavior rating in the rat; format: in vivo
# Excerpt: Stereotypy: The mean stereotyped licking and gnawing behavioral rating scheme developed by Tarsy and Baldessarini^8 was used. […]
# Stereotypy scores were rated for one hour as described in […]
# [7] = tested on: dopamine (DA) receptors in the limbic system; experiment: Locomotor activity (spontaneous or aroused by (-)APO / (-)NPA), electronic activity monitor; format: in vivo, rat; conditions: Table 5; (-)NPA 0.3 mg/kg + saline
# Protocol: as §1
# Rats (mean N=6 per condition) were tested for locomotor activity for 60 min following a single dose of (-)APO (0.3 mg/kg, SC), or its vehicle ("placebo" condition). The S(+) isomers were administered in a range of doses from 0 or 0.1 to 30 mg/kg, SC immediately following injection of (-)APO or its vehicle. Data are presented in FIG. 2 as mean EAM activity counts per hour SEM. In that figure, the dashed line labeled "control" represents the mean activity of rats given vehicle only and no aporphine (SD values are indicated by parallel light lines above and below the control mean).
# Test agents (11substituted-N--propylnoraporphine isomers were given at a
# dose of 3 mg/kg, ip (in 2 ml/kg) just prior to (-)apomorphine (APO, at 0.
# mg/kg, ip, in 1 ml/kg) to rats (N = 6) tested in an electronic activity
# Dopamine Receptors [8] = format: binding, calf; conditions: ligand [3H]ADTN (0.5 nM)
# Dopamine Receptors [9] = format: binding, calf; conditions: ligand [3H]APO (0.5 nM)
# [10] = Table 5, (-)NPA 0.3 mg/kg + saline
# [11] = Table 5, (-)NPA 3.0 mg/kg + saline
# [12] = 2.5 min, read-out: cAMP production, % of control
# T2 sequence (P18901 whole entry): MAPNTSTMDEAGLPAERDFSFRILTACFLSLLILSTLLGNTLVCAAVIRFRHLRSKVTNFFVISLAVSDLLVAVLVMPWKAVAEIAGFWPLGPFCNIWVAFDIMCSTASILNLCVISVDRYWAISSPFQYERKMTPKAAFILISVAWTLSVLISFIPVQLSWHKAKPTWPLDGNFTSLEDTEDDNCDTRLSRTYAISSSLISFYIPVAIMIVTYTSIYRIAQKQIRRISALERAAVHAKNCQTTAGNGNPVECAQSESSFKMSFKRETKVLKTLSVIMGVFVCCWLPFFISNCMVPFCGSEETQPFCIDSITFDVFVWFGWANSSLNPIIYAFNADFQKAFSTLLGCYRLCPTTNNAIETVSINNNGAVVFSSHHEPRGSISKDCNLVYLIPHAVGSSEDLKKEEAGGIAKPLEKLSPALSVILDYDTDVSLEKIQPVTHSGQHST
smiles,measurement,setting,value
"CCCN1CCc2cccc3c2[C@H]1Cc1ccc(O)c(O)c1-3 [(-)NPA, (R)-N-n-propylnorapomorphine]",Locomotion,[1],10.2 ± 6.3 percent change
same,Vmax (range of two experiments),[2]; footnote range,8.9-11.1 (pmol/assay)/h
same,Vmax,"[2]; mean, substrate of rat liver COMT",10.0 (pmol/assay)/h
same,Total Activity,"[3]; Table 3, 0.1 mg/kg, s.c.",2.0 ± 1.8 percent change vs. placebo con
same,Total Activity,"[3]; Table 3, 0.3 mg/kg, s.c.",2.1 ± 3.2 percent change vs. placebo con
same,Total Activity,"[3]; Table 3, 3.0 mg/kg, s.c.",231.4 ± 37 percent change vs. placebo con
same,Total Activity,[3]; [10],22.1 ± 3.7 percent change
same,Total Activity,[3]; [11],231.4 ± 37 percent change
same,cAMP production,[4]; 1 μM,3.71 ± 0.31 picomoles per 2.5 min
same,cAMP production,[4]; 5 μM,4.57 ± 0.13 picomoles per 2.5 min
same,cAMP production,[4]; 10 μM,5.34 ± 0.27 picomoles per 2.5 min
same,cAMP production,[4]; 50 μM,5.71 ± 0.24 picomoles per 2.5 min
same,cAMP production,[4]; 100 μM,5.56 ± 0.24 picomoles per 2.5 min
same,"cAMP formation, % of control at 1 µM",[4]; [12],150%
same,"cAMP formation, % of control at 5 µM",[4]; [12],184%
same,"cAMP formation, % of control at 10 µM",[4]; [12],215%
same,"cAMP formation, % of control at 50 µM",[4]; [12],230%
same,"cAMP formation, % of control at 100 µM",[4]; [12],224%
same,Catalepsy score,[5]; 0.1 mg/kg,0.5 ± 0.2
same,Catalepsy score,[5]; 3.0 mg/kg,0.8 ± 0.3
same,Stereotypy Score,"[6]; Table 1, (-) isomer 3 mg/kg, s.c., ± saline, maximum 3.0",2.9 ± 0.1 rating units
same,Stereotypy Score,"[6]; Table 3, 0.1 mg/kg, s.c., maximum 3.0",1.1 ± 0.2 rating units
same,Stereotypy Score,"[6]; Table 3, 0.3 mg/kg, s.c., maximum 3.0",2.0 ± 0.3 rating units
same,Stereotypy Score,"[6]; Table 3, 3.0 mg/kg, s.c., maximum 3.0",2.9 ± 0.9 rating units
same,Stereotypy Score,"[6]; Table 3, 5.0 mg/kg, s.c., maximum 3.0",3.0 ± 0.0 rating units
same,Stereotypy Score,[6]; [10],2.0 ± 0.2 rating units
same,Stereotypy Score,[6]; [11],2.8 ± 0.4 rating units
same,Locomotion,[7],48.1 ± 9.2 percent change
same,IC50,Dopamine Receptors [8],2 nM
same,IC50,Dopamine Receptors [9],2.5 nM
